Experimental data as given in patent US9902735B2, “Heteroaryl substituted compounds as RORγ inhibitors” (GlaxoSmithKline Intellectual Property Developement Limited, priority 2014, dated 2018).

System: Mouse CD4+ cells
Experiment: Th17 cell differentiation assay (IL-17 ELISA)
Assay type: cell-based
Details: mean of multiple test results if tested more than once, read-out: pIC50 in the Th17 cell differentiation assay (converted)
Procedure: Mouse CD4+ cells were purified using the CD4+ T Cell Isolation II Kit according to manufacturer's instructions (Miltenyi Biotec). 96 well plates were pre-coated with anti-mCD3 antibody. Un-coated wells were used as controls. CD4+ Cells were resuspended in RPMI 1640 complete medium and were added to the 96-well plates. Cytokine cocktail and the compound were then added to the wells. Antibodies and cytokines (all from R&D Systems) used in the assay were selected from the following: anti-mCD3; anti-mCD28; anti-mIFNγ; anti-mIL4; mIL-6; mIL-23; mIL-1β; hTGF-β1. The culture was incubated at 37° C. for 3 days and supernatants were collected for ELISA. The IL-17 ELISAs were performed according to manufacturer's instructions (R&D Systems). The results were analyzed using Prism software with non-linear regression to determine pIC50.
The Th17 differentiation culture described above was maintained for 5 days and cells were analyzed by IL-17 and IFN-γ intracellular staining according to manufacturer's instructions (BD Biosciences).

`Cc1ncc(C(=O)Nc2cc(Cl)cc(CN3CCN(C(=O)CC4CC4)[C@@H](C)C3)c2C)cc1F` [Example 80, (S)—N-(5-chloro-3-((4-(2-cyclopropylacetyl)-3-methylpiperazin-1-yl)methyl)-2-methylphenyl)-5-fluoro-6-methylnicotinamide] gave an IC50 of roughly 5.01 nM.
